Data published in the NIST ThermoML archive (doi:10.1021/je500424b).
Numbers after ± are expanded uncertainties.

Details: Gas, Cylindrical cavity resonance method

C=CC [propene]
Details	speed of sound [m/s]
260 K, 164.45 kPa	238.03 ± 0.071
260 K, 185.32 kPa	237.15 ± 0.071
260 K, 206.56 kPa	236.23 ± 0.071
260 K, 227.97 kPa	235.29 ± 0.071
260 K, 248.96 kPa	234.36 ± 0.071
260 K, 275.35 kPa	233.17 ± 0.071
260 K, 293.11 kPa	232.48 ± 0.07
270 K, 144.04 kPa	243.6 ± 0.072
270 K, 173.01 kPa	242.51 ± 0.071
270 K, 206.19 kPa	241.23 ± 0.071
270 K, 236.28 kPa	240.06 ± 0.071
270 K, 262.89 kPa	239 ± 0.071
270 K, 263.03 kPa	239 ± 0.071
270 K, 302.89 kPa	237.39 ± 0.071
270 K, 333.53 kPa	236.13 ± 0.071
270 K, 361.31 kPa	234.96 ± 0.071
270 K, 389.41 kPa	233.76 ± 0.071
280 K, 149.29 kPa	247.97 ± 0.072
280 K, 188.35 kPa	246.64 ± 0.072
280 K, 226.29 kPa	245.31 ± 0.072
280 K, 267.79 kPa	243.84 ± 0.071
280 K, 308.73 kPa	242.37 ± 0.071
280 K, 354.13 kPa	240.69 ± 0.071
280 K, 397.57 kPa	239.06 ± 0.071
280 K, 438.3 kPa	237.49 ± 0.071
280 K, 438.33 kPa	237.49 ± 0.071
280 K, 478.89 kPa	235.89 ± 0.071
280 K, 519.72 kPa	234.24 ± 0.071
280 K, 556.25 kPa	232.73 ± 0.071
290 K, 141.01 kPa	252.63 ± 0.072
290 K, 199.13 kPa	250.82 ± 0.072
290 K, 257.68 kPa	248.96 ± 0.072
290 K, 313.39 kPa	247.15 ± 0.072
290 K, 372.8 kPa	245.18 ± 0.071
290 K, 434.96 kPa	243.06 ± 0.071
290 K, 495.22 kPa	240.95 ± 0.071
290 K, 553.22 kPa	238.87 ± 0.071
290 K, 616.94 kPa	236.51 ± 0.071
290 K, 672.07 kPa	234.4 ± 0.071
290 K, 677.98 kPa	234.17 ± 0.071
290 K, 695.54 kPa	233.48 ± 0.07
300 K, 134.71 kPa	257.09 ± 0.073
300 K, 182.3 kPa	255.75 ± 0.073
300 K, 260.81 kPa	253.49 ± 0.072
300 K, 344.4 kPa	251.01 ± 0.072
300 K, 425.25 kPa	248.56 ± 0.072
300 K, 505.72 kPa	246.04 ± 0.071
300 K, 582.66 kPa	243.56 ± 0.071
300 K, 661.1 kPa	240.94 ± 0.071
300 K, 740.35 kPa	238.22 ± 0.071
300 K, 826.4 kPa	235.15 ± 0.07
300 K, 903.31 kPa	232.29 ± 0.07
300 K, 960.98 kPa	230.07 ± 0.07
310 K, 142.07 kPa	261.05 ± 0.073
310 K, 235.24 kPa	258.61 ± 0.073
310 K, 325.91 kPa	256.18 ± 0.073
310 K, 424.89 kPa	253.46 ± 0.072
310 K, 520.89 kPa	250.75 ± 0.072
310 K, 623.06 kPa	247.76 ± 0.072
310 K, 713.38 kPa	245.04 ± 0.071
310 K, 810.73 kPa	242.01 ± 0.071
310 K, 906.76 kPa	238.9 ± 0.071
310 K, 952.69 kPa	237.37 ± 0.071
320 K, 142.67 kPa	265.1 ± 0.074
320 K, 210.07 kPa	263.49 ± 0.073
320 K, 279.66 kPa	261.81 ± 0.073
320 K, 349.85 kPa	260.08 ± 0.073
320 K, 425.07 kPa	258.19 ± 0.073
320 K, 509.07 kPa	256.04 ± 0.072
320 K, 596.12 kPa	253.77 ± 0.072
320 K, 677.09 kPa	251.6 ± 0.072
320 K, 756.59 kPa	249.42 ± 0.072
320 K, 834.83 kPa	247.22 ± 0.071
320 K, 905.02 kPa	245.21 ± 0.071
320 K, 976.94 kPa	243.09 ± 0.071
330 K, 151.93 kPa	268.88 ± 0.074
330 K, 227.66 kPa	267.22 ± 0.074
330 K, 302.35 kPa	265.55 ± 0.074
330 K, 380.89 kPa	263.77 ± 0.073
330 K, 455.62 kPa	262.04 ± 0.073
330 K, 550.82 kPa	259.81 ± 0.073
330 K, 642.65 kPa	257.6 ± 0.073
330 K, 732.74 kPa	255.39 ± 0.072
330 K, 821.61 kPa	253.16 ± 0.072
330 K, 912.04 kPa	250.84 ± 0.072
330 K, 1001.4 kPa	248.5 ± 0.072
